In patent US20120016009A1, “Optimized Methods For Delivery Of DSRNA Targeting The PCSK9 Gene” (priority 2008, published 2012):
In the oligonucleotide strings, read from the 5' end, every base follows the letter of its sugar. An asterisk marks phosphorothioate; unmarked linkages are phosphodiester. Other units and linkages are bracketed, terminal groups are in braces. A string of capitals states the bases alone. [Ab] = 3'-terminal abasic nucleotide; d = 2'-deoxy (DNA); m = 2'-O-methyl; r = 2'-OH (RNA)

Tested on: PCSK9 mRNA
Test: In vitro screening of modified dsRNAs targeted to PCSK9 (Table 2b; cell type not given)
Type: cell-based
Details: 30 nM siRNA
Protocol: For transfection with siRNA, HuH7, HepG2, or HeLa cells were seeded at a density of 2.0×10^4 cells/well in 96-well plates and transfected directly. Transfection of siRNA (30 nM for single dose screen) was carried out with lipofectamine 2000 (Invitrogen GmbH, Karlsruhe, Germany, cat. No. 11668-019) as described by the manufacturer.
24 hours after transfection HuH7 and HepG2 cells were lysed and PCSK9 mRNA levels were quantified with the Quantigene Explore Kit (Genosprectra, Dumbarton Circle Fremont, USA, cat. No. QG-000-02) according to the protocol. PCSK9 mRNA levels were normalized to GAP-DH mRNA. For each siRNA eight individual datapoints were collected. siRNA duplexes unrelated to PCSK9 gene were used as control. The activity of a given PCSK9 specific siRNA duplex was expressed as percent PCSK9 mRNA concentration in treated cells relative to PCSK9 mRNA concentration in cells treated with the control siRNA duplex.
Tables 1b and 2b (and FIG. 6A) summarize the results and provide examples of in vitro screens in different cell lines at different doses. Silencing of PCSK9 transcript was expressed as percentage of remaining transcript at a given dose.

Point of comparison: “AD-12048: modified dsRNA, SEQ ID NO:1331/1332 (chain 1 rGmCmCmUrGrGrArGmUmUmUrAmUmUmCrGrGrArArArA; chain 2 rUrUrUrUrCrCrGrArArUrArArArCrUrCrCrArGrGrC*mC*mU)”, “Remaining mRNA in % of controls at siRNA conc. of 30 nM” value 43%. Against it:
- AD-12039: modified dsRNA, SEQ ID NO:1313/1314 (chain 1 rGmCmCmUrGrGrArGmUmUmUrAmUmUmCrGrGrArAdT*dT; chain 2 rUmUrCrCrGrArArUrArArArCrUrCrCrArGrGrCdT*dT) — lower, 29%
- AD-12040: modified dsRNA, SEQ ID NO:1315/1316 (chain 1 rGmCmCmUrGrGrArGmUmUmUrAmUmUmCrGrGrArAdT*dT; chain 2 rUrUmCrCrGrArArUrArArArCrUrCrCrArGrGrCdT*dT) — lower, 10%
- AD-12041: modified dsRNA, SEQ ID NO:1317/1318 (chain 1 rGmCmCmUrGrGrArGmUmUmUrAmUmUmCrGrGrArAdT*dT; chain 2 rUrUrCmCrGrArArUrArArArCrUrCrCrArGrGrCdT*dT) — lower, 11%
- AD-12042: modified dsRNA, SEQ ID NO:1319/1320 (chain 1 rGrCrCrUrGrGrArGrUrUrUrArUrUrCrGrGrArAdT*dT; chain 2 mUrUrCrCrGrArArUrArArArCrUrCrCrArGrGrCdT*dT) — lower, 12%
- AD-12043: modified dsRNA, SEQ ID NO:1321/1322 (chain 1 rGrCrCrUrGrGrArGrUrUrUrArUrUrCrGrGrArAdT*dT; chain 2 rUmUrCrCrGrArArUrArArArCrUrCrCrArGrGrCdT*dT) — lower, 13%
- AD-12044: modified dsRNA, SEQ ID NO:1323/1324 (chain 1 rGrCrCrUrGrGrArGrUrUrUrArUrUrCrGrGrArAdT*dT; chain 2 rUrUmCrCrGrArArUrArArArCrUrCrCrArGrGrCdT*dT) — lower, 7%
- AD-12045: modified dsRNA, SEQ ID NO:1325/1326 (chain 1 rGrCrCrUrGrGrArGrUrUrUrArUrUrCrGrGrArAdT*dT; chain 2 rUrUrCmCrGrArArUrArArArCrUrCrCrArGrGrCdT*dT) — lower, 8%
- AD-12046: modified dsRNA, SEQ ID NO:1327/1328 (chain 1 rGmCmCmUrGrGrArGmUmUmUrAmUmUmCrGrGrArA; chain 2 rUrUrCrCrGrArArUrArArArCrUrCrCrArGrGrC*mC*mU) — lower, 13%
- AD-12047: modified dsRNA, SEQ ID NO:1329/1330 (chain 1 rGmCmCmUrGrGrArGmUmUmUrAmUmUmCrGrGrArArA; chain 2 rUrUrUrCrCrGrArArUrArArArCrUrCrCrArGrGrC*mC*mU) — lower, 17%
- AD-12049: modified dsRNA, SEQ ID NO:1333/1334 (chain 1 rGmCmCmUrGrGrArGmUmUmUrAmUmUmCrGrGrArArArArG; chain 2 rCrUrUrUrUrCrCrGrArArUrArArArCrUrCrCrArGrGrC*mC*mU) — lower, 34%
- AD-12050: modified dsRNA, SEQ ID NO:1335/1336 (chain 1 rGmCmCmUrGrGrArGmUmUmUrAmUmUmCrGrGrArAdTdT[Ab]; chain 2 rUrUrCrCrGrArArUrArArArCrUrCrCrArGrGrCdTdT[Ab]) — lower, 16%
- AD-12051: modified dsRNA, SEQ ID NO:1337/1338 (chain 1 rGmCmCmUrGrGrArGmUmUmUrAmUmUmCrGrGrArArAdTdT[Ab]; chain 2 rUrUrUrCrCrGrArAmUrArArArCrUrCrCrArGrGrCdTdT[Ab]) — lower, 31%
- AD-12052: modified dsRNA, SEQ ID NO:1339/1340 (chain 1 rGmCmCmUrGrGrArGmUmUmUrAmUmUmCrGrGrArArArAdTdT[Ab]; chain 2 rUrUrUrUrCrCrGrArArUrArArArCrUrCrCrArGrGrCdTdT[Ab]) — higher, 81%
